“And” between values parts separate entries of the source, which are not always exact repeats. Equal values may be shown once.
Experiments:
FGFR3 N540K = tested on: FGFR3 N540K; set-up: method as in PMID 39258897; conditions: cited from earlier work
wild-type C57BL/6J mice = experiment: Wild-type mouse growth velocity study; format: in vivo; set-up: nasoanal length, individual mice: unit not given here; conditions: for femur length by calipers, individual mice / tibia length by calipers, individual mice: final day of treatment (8 weeks of age), in mm (unit assumed); for femurs longer than vehicle / tibias longer than vehicle: 4 weeks of treatment
Protocol: To determine the in vivo effect of FGFR3 inhibition under normal physiologic conditions, TYRA-300 was tested in a growth velocity assay in wild-type mice ([32]). In this study, wild-type C57BL/6J mice were dosed orally with TYRA-300 once daily from 4 to 8 weeks of age. […] Based on the doses evaluated for infigratinib in oncology and ACH, a lower dose was thought to be more appropriate for long-term treatment of pediatric growth–related conditions. We therefore initially explored doses in the 8 to 14 mg/kg range in this model. […] Specifically, after treatment with 12 mg/kg TYRA-300, the tibias were on average 3.9% longer than the tibias of mice that received treatment with vehicle, and the femurs were on average 5.0% longer after treatment; additionally, with 14 mg/kg TYRA-300, the tibias were 6.4% longer and the femurs were 8.2% longer. There was no difference in body weight among the treatment groups (data not shown).
At 21 days of age, female C57BL/6J mice (The Jackson Laboratory) were subject to nasoanal length and nasotail length measurement while under anesthesia. Tail length was calculated by subtracting nasoanal length from nasotail length. Body weights were also recorded. One week later, at 28 days of age, nasoanal lengths and body weights were measured again and mice were randomized to treatment groups of 12 mice per group according to nasoanal length. TYRA-300 was dissolved in 30% hydroxypropyl-β-cyclodextrin for administration by oral gavage. Mice were dosed orally with TYRA-300 or vehicle control once daily (QD) for 4 weeks, and nasoanal lengths and body weights were monitored once weekly, along with daily clinical observations. Mouse tibias and femurs were collected and measured with calipers at the end of the study.

pERK1/2 = experiment: Fgfr3N534K/+ mice: histology and pERK1/2 immunohistochemistry of distal femur; format: in vivo, mouse; conditions: 1.8 mg/kg daily for 21 days
Protocol: To confirm the mechanistic effect of TYRA-300 within the growth plate of treated Fgfr3^N534K/+ mice, immunohistochemical analyses were performed on the distal femurs. In contrast to the ACH model, a larger SOC is visible in the femoral epiphysis of HCH mice ([42]), and the effect of TYRA-300 on SOC formation is not obvious. […] It is well established that the MAPK pathway is the canonical FGFR3 downstream signaling pathway. Here, we confirmed that this pathway is still activated at 24 days of age in the HCH growth plate through immunohistochemical staining of phosphorylated ERK1/2 (pERK), which was positive in hypertrophic chondrocytes (Figure 4G).
The right femur and lumbar vertebrae segment L4–L6 were collected and fixed in 4% paraformaldehyde, decalcified with ethylenediaminetetraacetic acid (EDTA) 0.5 M (pH 8) for 2 or 3 weeks, and embedded in paraffin. Serial paraffin sections of 5 μm were stained with hematoxylin, eosin, and Safranin O. For immunohistochemistry, sections were labeled with antibodies against collagen type X (BIOCYC ref. [1]-CO097-05-RUO, 1:100 dilution), collagen type I (Novotec, 20151, dilution 1:1,000), pERK (Cell Signaling, 4370S, dilution 1:1,000), and PCNA (Abcam, GR3195972-6, 1:500 dilution) using the Dako Envision Kit. […] Cells were counted using ImageJ software (NIH, Laboratory for Optical Computational Instrumentation).

[1] = 12 mg/kg oral daily from week 4, week 3 of age (before treatment)
[2] = 12 mg/kg oral daily from week 4, week 4 of age (start of treatment)
[3] = 12 mg/kg oral daily from week 4, week 5 of age
[4] = 12 mg/kg oral daily from week 4, week 6 of age
[5] = 12 mg/kg oral daily from week 4, week 7 of age
[6] = 12 mg/kg oral daily from week 4, week 8 of age
[7] = 14 mg/kg oral daily from week 4, week 3 of age (before treatment)
[8] = 14 mg/kg oral daily from week 4, week 4 of age (start of treatment)

In the case of `C[C@@H](Oc1ccc2[nH]nc(-c3ccc(N4CC5(C4)CN(S(C)(=O)=O)C5)nc3)c2c1)c1c(Cl)cncc1Cl` [TYRA-300], the “inhibition of FGFR3 N540K relative to wild-type and G380R mutant proteins” value (FGFR3 N540K) is listed as “lower inhibition”, the “nasoanal length and tibia and femur length vs vehicle” value (wild-type C57BL/6J mice; 8 mg/kg and 10 mg/kg, data not shown, P < 0.05) is listed as “significant increases” and the “tail length and tibia and femur length vs vehicle” value (wild-type C57BL/6J mice; 12 mg/kg and 14 mg/kg oral once daily, 4 weeks) is listed as “increased significantly and dose-dependently”. For the same compound, the “nasoanal length, individual mice” value (wild-type C57BL/6J mice; [1]) was 6.5 and 7.5 (2×) and 7.3 and 7 (3×) and 6.8 (2×) and 6.2 and 7.2 and 6, the “tail length, individual mice” value (wild-type C57BL/6J mice; [1]) was 5.7 and 6.3 and 6 (2×) and 6.2 and 5.6 and 5.5 and 6.4 and 6.6 and 5.9 and 5.3 and 5.8 and the “nasoanal length, individual mice” value (wild-type C57BL/6J mice; [2]) was 7.7 (3×) and 8.2 and 7.8 (3×) and 8 (2×) and 7.2 and 8.3 and 7.3. The “tail length, individual mice” value (wild-type C57BL/6J mice; [2]) was 5.9 and 7.2 (2×) and 6.9 (2×) and 6.7 and 6.8 and 6.3 and 6.4 (2×) and 5.7 and 6.5, the “nasoanal length, individual mice” value (wild-type C57BL/6J mice; [3]) was 8.2 and 8.6 (3×) and 8.5 (2×) and 8.7 and 8.3 (3×) and 9 and 7.7 and the “tail length, individual mice” value (wild-type C57BL/6J mice; [3]) was 6.8 and 7.2 (3×) and 7.3 (2×) and 7.1 (2×) and 6.7 and 7.4 and 7.8 and 6.5. The “nasoanal length, individual mice” value (wild-type C57BL/6J mice; [4]) was 8.6 (2×) and 8.8 (2×) and 8.7 (3×) and 9.2 and 9.1 and 9 and 9.3 and 8.4, the “tail length, individual mice” value (wild-type C57BL/6J mice; [4]) was 7.3 and 7.8 (2×) and 7.9 and 7.7 (3×) and 7.6 (2×) and 8 and 8.2 and 7 and the “nasoanal length, individual mice” value (wild-type C57BL/6J mice; [5]) was 8.8 and 9.1 (2×) and 9 (3×) and 9.4 and 9.3 and 9.5 and 10 and 9.2 and 8.7. For the same compound, the “tail length, individual mice” value (wild-type C57BL/6J mice; [5]) was 7.9 (2×) and 8 (3×) and 8.2 and 7.7 (2×) and 8.3 and 8.5 and 7.3 and 8.1, the “nasoanal length, individual mice” value (wild-type C57BL/6J mice; [6]) was 9.2 (3×) and 9.3 (5×) and 9.4 and 9.5 and 10 and 8.8 and the “tail length, individual mice” value (wild-type C57BL/6J mice; [6]) was 7.8 and 8.2 and 7.9 and 8.1 (4×) and 8.3 and 8 and 8.5 and 8.6 and 7.5. The “femur length by calipers, individual mice” value (wild-type C57BL/6J mice; 12 mg/kg oral daily) was 13.78 and 13.37 and 14.79 and 13.97 and 13.86 and 12.93 and 14.23 and 13.91 and 13.8 and 13.51 and 13.98, the “tibia length by calipers, individual mice” value (wild-type C57BL/6J mice; 12 mg/kg oral daily) was 15.08 and 16.34 and 16.3 and 17.19 and 16.6 and 15.75 and 16.27 and 16.06 and 16.41 and 16.46 and 17 and the “femurs longer than vehicle” value (wild-type C57BL/6J mice; 12 mg/kg oral once daily) was 5.0%. The “tibias longer than vehicle” value (wild-type C57BL/6J mice; 12 mg/kg oral once daily) was 3.9%, the “nasoanal length, individual mice” value (wild-type C57BL/6J mice; [7]) was 6.6 and 7.6 (2×) and 7.3 (2×) and 6.7 and 6.3 and 7.1 and 7.2 (2×) and 6.8 and 6.9 and the “tail length, individual mice” value (wild-type C57BL/6J mice; [7]) was 5.5 (2×) and 6 (2×) and 6.4 (2×) and 6.1 and 5.3 and 5.7 and 5.6 (3×). For the same compound, the “nasoanal length, individual mice” value (wild-type C57BL/6J mice; [8]) was 7.7 (2×) and 8.2 (2×) and 7.8 (4×) and 8 (2×) and 7.3 and 7.2, the “tail length, individual mice” value (wild-type C57BL/6J mice; [8]) was 6.3 and 6.9 (2×) and 7 (2×) and 6.8 and 6 (2×) and 6.4 (2×) and 6.6 and 6.7 and the “nasoanal length, individual mice” value (wild-type C57BL/6J mice; 14 mg/kg oral daily from week 4, week 5 of age) was 8.7 (2×) and 8.5 and 8.6. The “tail length, individual mice” value (wild-type C57BL/6J mice; 14 mg/kg oral daily from week 4, week 5 of age, in cm (unit assumed)) was 7 and 7.6 and 7.4 and 7.5, the “femur length by calipers, individual mice” value (wild-type C57BL/6J mice; 14 mg/kg oral daily) was 14.47 and 14.13 and 13.58 and 13.93 and 13.04 and 14.9 and 14.56 and 14.74 and 14.08 and 15.12 and 14.91 and 13.6 and the “tibia length by calipers, individual mice” value (wild-type C57BL/6J mice; 14 mg/kg oral daily) was 16.57 and 16.39 and 16.89 and 16.61 and 16.95 and 17.24 and 16.1 and 17.47 and 16.69 and 16.27. For the same compound, the “increase in nasoanal length vs vehicle” value (wild-type C57BL/6J mice; 14 mg/kg oral once daily, 4 to 8 weeks of age) was 7.3%, the “femurs longer than vehicle” value (wild-type C57BL/6J mice; 14 mg/kg oral once daily) was 8.2% and the “tibias longer than vehicle” value (wild-type C57BL/6J mice; 14 mg/kg oral once daily) was 6.4%. The “body weight among the treatment groups” value (wild-type C57BL/6J mice; oral once daily, data not shown) was “no difference”, the “overall architecture of the growth plate (H&E and collagen type X)” value (pERK1/2) was “did not demonstrate significant changes” and the “pERK+ cells per ROI vs vehicle” value (pERK1/2; distal femur growth plate) was “significant decrease”.
